From patent publication US20120220562A1, “Anti-Viral Compounds” (ABBOTT LABAORATORIES, priority 2011, published 2012)

Each molecule was assayed on HCV 1b-Con1 replicon (assay: HCV 1b-Con1 replicon assay in the presence of 5% FBS). Conditions: Hepatitis C virus.
Format: cell-based
`COC(=O)N[C@H](C(=O)N1CCC[C@H]1c1nc2cc([C@H]3CC[C@H](c4cc5nc([C@@H]6CCCN6C(=O)[C@@H](NC(=O)OC)[C@@H](C)OC)[nH]c5cc4F)N3c3cc(F)c(N4CCN(c5ccc(C(F)(F)F)cc5)CC4)c(F)c3)c(F)cc2[nH]1)[C@@H](C)OC` [Example 6.15, methyl {(2S,3R)-1-[(2S)-2-{5-[(2R,5R)-1-(3,5-difluoro-4-{4-[4-(trifluoromethyl)phenyl]piperazin-1-yl}phenyl)-5-(6-fluoro-2-{(2S)-1-[N-(methoxycarbonyl)-O-methyl-L-threonyl]pyrrolidin-2-yl}-1H-benzimidazol-5-yl)pyrrolidin-2-yl]-6-fluoro-1H-benzimidazol-2-yl}pyrrolidin-1-yl]-3-methoxy-1-oxobutan-2-yl}carbamate] was tested, and the EC50 was < 0.1 nM.
With `COC(=O)N[C@H](C(=O)N1CCC[C@H]1c1nc2ccc([C@H]3CC[C@H](c4ccc5nc([C@@H]6CCCN6C(=O)[C@@H](NC(=O)OC)C(C)C)[nH]c5c4)N3c3c(F)c(F)c(N4CCCCC4)c(F)c3F)cc2[nH]1)C(C)C` [Example 2.6, methyl {(2S)-1-[(2S)-2-(6-{(2R,5R)-5-{2-[(2S)-1-{(2S)-2-[(methoxycarbonyl)amino]-3-methylbutanoyl}pyrrolidin-2-yl]-1H-benzimidazol-6-yl}-1-[2,3,5,6-tetrafluoro-4-(piperidin-1-yl)phenyl]pyrrolidin-2-yl}-1H-benzimidazol-2-yl)pyrrolidin-1-yl]-3-methyl-1-oxobutan-2-yl}carbamate] the EC50 was < 0.1 nM.
With `COC(=O)N[C@H](C(=O)N1C[C@@H](F)C[C@H]1c1nc2cc([C@H]3CC[C@H](c4ccc5[nH]c([C@@H]6C[C@H](F)CN6C(=O)[C@@H](NC(=O)OC)C(C)C)nc5c4)N3c3cc(F)c(N4CCCCC4)c(F)c3)ccc2[nH]1)C(C)C` [Example 3.8, methyl {(2S)-1-[(2S,4S)-2-{5-[(2R,5R)-1-[3,5-difluoro-4-(piperidin-1-yl)phenyl]-5-{2-[(2S,4S)-4-fluoro-1-{(2S)-2-[(methoxycarbonyl)amino]-3-methylbutanoyl}pyrrolidin-2-yl]-1H-benzimidazol-5-yl}pyrrolidin-2-yl]-1H-benzimidazol-2-yl}-4-fluoropyrrolidin-1-yl]-3-methyl-1-oxobutan-2-yl}carbamate] the EC50 was < 0.1 nM.
With `COC(=O)N[C@H](C(=O)N1CCC[C@H]1c1nc2cc([C@H]3CC[C@H](c4ccc5[nH]c([C@@H]6CCCN6C(=O)[C@@H](NC(=O)OC)C6CCOCC6)nc5c4)N3c3cc(F)c(N4CCC(C)(C)CC4)c(F)c3)ccc2[nH]1)C1CCOCC1` [Example 4.23, dimethyl ({(2R,5R)-1-[4-(4,4-dimethylpiperidin-1-yl)-3,5-difluorophenyl]pyrrolidine-2,5-diyl}bis{1H-benzimidazole-5,2-diyl(2S)pyrrolidine-2,1-diyl[(1S)-2-oxo-1-(tetrahydro-2H-pyran-4-yl)ethane-2,1-diyl]})biscarbamate] the EC50 was < 0.1 nM.
With `COC(=O)N[C@H](C(=O)N1CCC[C@H]1c1nc2cc(F)c([C@H]3CC[C@H](c4cc5[nH]c([C@@H]6CCCN6C(=O)[C@@H](NC(=O)OC)C(C)C)nc5cc4F)N3c3cc(F)c(N4CCN(c5c(F)cccc5F)CC4)c(F)c3)cc2[nH]1)C(C)C` [Example 6.16, methyl {(2S)-1-[(2S)-2-{6-[(2R,5R)-1-{4-[4-(2,6-difluorophenyl)piperazin-1-yl]-3,5-difluorophenyl}-5-{5-fluoro-2-[(2S)-1-{(2S)-2-[(methoxycarbonyl)amino]-3-methylbutanoyl}pyrrolidin-2-yl]-1H-benzimidazol-6-yl}pyrrolidin-2-yl]-5-fluoro-1H-benzimidazol-2-yl}pyrrolidin-1-yl]-3-methyl-1-oxobutan-2-yl}carbamate] the EC50 was < 0.1 nM.
Work on `COC(=O)N[C@H](C(=O)N1CCC[C@H]1c1nc2cc([C@H]3CC[C@H](c4ccc5[nH]c([C@@H]6CCCN6C(=O)[C@@H](NC(=O)OC)C(C)C)nc5c4)N3c3ccc(N4CCC(c5ccccc5)CC4)cc3)ccc2[nH]1)C(C)C` [Example 4.25, methyl {(2S)-1-[(2S)-2-(5-{(2R,5R)-5-{2-[(2S)-1-{(2S)-2-[(methoxycarbonyl)amino]-3-methylbutanoyl}pyrrolidin-2-yl]-1H-benzimidazol-5-yl}-1-[4-(4-phenylpiperidin-1-yl)phenyl]pyrrolidin-2-yl}-1H-benzimidazol-2-yl)pyrrolidin-1-yl]-3-methyl-1-oxobutan-2-yl}carbamate] yielded an EC50 of 0.1 to 1 nM.
For `COC(=O)N[C@H](C(=O)N1CCC[C@H]1c1nc2cc([C@H]3CC[C@H](c4ccc5[nH]c([C@@H]6CCCN6C(=O)[C@@H](NC(=O)OC)C6CCOCC6)nc5c4)N3c3cc(F)c(N4CCC(c5ccccc5)CC4)c(F)c3)ccc2[nH]1)C1CCOCC1` [Example 3.23, dimethyl ({(2R,5R)-1-[3,5-difluoro-4-(4-phenylpiperidin-1-yl)phenyl]pyrrolidine-2,5-diyl}bis{1H-benzimidazole-5,2-diyl(2S)pyrrolidine-2,1-diyl [(1S)-2-oxo-1-(tetrahydro-2H-pyran-4-yl)ethane-2,1-diyl]})biscarbamate], the EC50 was < 0.1 nM.
For `COC(=O)N[C@H](C(=O)N1CCC[C@H]1c1nc2cc([C@H]3CC[C@H](c4ccc5[nH]c([C@@H]6CCCN6C(=O)[C@@H](NC(=O)OC)C(C)C)nc5c4)N3c3cc(F)c(N4CCN(c5ccc(C(F)(F)F)cc5)CC4)c(F)c3)ccc2[nH]1)C(C)C` [Example 2.17, methyl {(2S)-1-[(2S)-2-{5-[(2R,5R)-1-(3,5-difluoro-4-{4-[4-(trifluoromethyl)phenyl]piperazin-1-yl}phenyl)-5-{2-[(2S)-1-(2S)-2-[(methoxycarbonyl)amino]-3-methylbutanoylpyrrolidin-2-yl]-1H-benzimidazol-5-yl}pyrrolidin-2-yl]-1H-benzimidazol-2-yl}pyrrolidin-1-yl]-3-methyl-1-oxobutan-2-yl}carbamate], the EC50 was < 0.1 nM.
`COC(=O)N[C@H](C(=O)N1CCC[C@H]1c1nc2cc([C@H]3CC[C@H](c4cc5nc([C@@H]6CCCN6C(=O)[C@@H](NC(=O)OC)[C@@H](C)OC)[nH]c5cc4F)N3c3cc(F)c(N4CCN(c5c(F)cccc5F)CC4)c(F)c3)c(F)cc2[nH]1)[C@@H](C)OC` [Example 3.48, methyl {(2S,3R)-1-[(2S)-2-{5-[(2R,5R)-1-{4-[4-(2,6-difluorophenyl)piperazin-1-yl]-3,5-difluorophenyl}-5-(6-fluoro-2-{(2S)-1-[N-(methoxycarbonyl)-O-methyl-L-threonyl]pyrrolidin-2-yl}-1H-benzimidazol-5-yl)pyrrolidin-2-yl]-6-fluoro-1H-benzimidazol-2-yl}pyrrolidin-1-yl]-3-methoxy-1-oxobutan-2-yl}carbamate] was tested, and the EC50 was < 0.1 nM.
In the case of `COC(=O)N[C@H](C(=O)N1CCC[C@H]1c1nc2cc([C@H]3CC[C@H](c4ccc5[nH]c([C@@H]6CCCN6C(=O)[C@@H](NC(=O)OC)C(C)C)nc5c4)N3c3cc(F)c(N4CC(C)(C)C4)c(F)c3)ccc2[nH]1)C(C)C` [Example 4.24, methyl {(2S)-1-[(2S)-2-{5-[(R2R,5R)-1-[4-(3,3-dimethylazetidin-1-yl)-3,5-difluorophenyl]-5-{2-[(2S)-1-{(2S)-2-[(methoxycarbonyl)amino]-3-methylbutanoyl}pyrrolidin-2-yl]-1H-benzimidazol-5-yl}pyrrolidin-2-yl]-1H-benzimidazol-2-yl}pyrrolidin-1-yl]-3-methyl-1-oxobutan-2-yl}carbamate], the EC50 is reported as < 0.1 nM.
`COC(=O)N[C@H](C(=O)N1CCC[C@H]1c1nc2ccc([C@H]3CC[C@H](c4ccc5nc([C@@H]6CCCN6C(=O)[C@@H](NC(=O)OC)C6CC6)[nH]c5c4)N3c3ccc(C(C)(C)C)cc3)cc2[nH]1)C1CC1` [Example 4.16, dimethyl ([(2R,5R)-1-(4-tert-butylphenyl)pyrrolidine-2,5-diyl]bis{1H-benzimidazole-6,2-diyl(2S)pyrrolidine-2,1-diyl [(1S)-1-cyclopropyl-2-oxoethane-2,1-diyl]}) biscarbamate] was tested, and the EC50 was < 0.1 nM.
With `COC(=O)N[C@H](C(=O)N1CCC[C@H]1c1nc2cc([C@H]3CC[C@H](c4ccc5[nH]c([C@@H]6CCCN6C(=O)[C@@H](NC(=O)OC)C(C)C)nc5c4)N3c3cc(F)c(N4[C@H](C)CCC[C@@H]4C)c(F)c3)ccc2[nH]1)C(C)C` [Example 4.6, methyl {(2S)-1-[(2S)-2-{5-[(2R,5R)-1-{4-[(2R,6S)-2,6-dimethylpiperidin-1-yl]-3,5-difluorophenyl}-5-{2-[(2S)-1-{(2S)-2-[(methoxycarbonyl)amino]-3-methylbutanoyl}pyrrolidin-2-yl]-1H-benzimidazol-5-yl}pyrrolidin-2-yl]-1H-benzimidazol-2-yl}pyrrolidin-1-yl]-3-methyl-1-oxobutan-2-yl}carbamate] the EC50 was < 0.1 nM.
`COC(=O)N[C@H](C(=O)N1CCC[C@H]1c1nc2cc([C@H]3CC[C@H](c4ccc5nc([C@@H]6CCCN6C(=O)[C@@H](NC(=O)OC)C(C)C)[nH]c5c4)N3c3cc(F)c(N4CCCC(c5ccccc5)C4)c(F)c3)ccc2[nH]1)C(C)C` (stereo partly drawn) [Example 4.32, methyl {(2S)-1-[(2S)-2-{5-[(2R,5R)-1-[3,5-difluoro-4-(3-phenylpiperidin-1-yl)phenyl]-5-{2-[(2S)-1-{(2S)-2-[(methoxycarbonyl)amino]-3-methylbutanoyl}pyrrolidin-2-yl]-1H-benzimidazol-6-yl}pyrrolidin-2-yl]-1H-benzimidazol-2-yl}pyrrolidin-1-yl]-3-methyl-1-oxobutan-2-yl}carbamate] was tested, and the EC50 was < 0.1 nM.
For `COC(=O)N[C@H](C(=O)N1CCC[C@H]1c1nc2ccc([C@H]3CC[C@H](c4ccc5nc([C@@H]6CCCN6C(=O)[C@@H](NC(=O)OC)C(C)C)[nH]c5c4)N3c3ccc(S(C)(=O)=O)c(F)c3)cc2[nH]1)C(C)C` [Example 2.7, methyl {(2S)-1-[(2S)-2-{6-[(2R,5R)-1-[3-fluoro-4-(methylsulfonyl)phenyl]-5-{2-[(2S)-1-{(2S)-2-[(methoxycarbonyl)amino]-3-methylbutanoyl}pyrrolidin-2-yl]-1H-benzimidazol-6-yl}pyrrolidin-2-yl]-1H-benzimidazol-2-yl}pyrrolidin-1-yl]-3-methyl-1-oxobutan-2-yl}carbamate], the EC50 was 1 to 10 nM.
`COC(=O)NC(C(=O)N1CCC[C@H]1c1nc2cc([C@@H]3CC[C@@H](c4ccc5[nH]c([C@@H]6CCCN6C(=O)C(NC(=O)OC)=C(C)C)nc5c4)N3c3ccc(C(C)(C)C)cc3)ccc2[nH]1)=C(C)C` [Example 3.17, dimethyl {[(2S,5S)-1-(4-tert-butylphenyl)pyrrolidine-2,5-diyl]bis[1H-benzimidazole-5,2-diyl(2S)pyrrolidine-2,1-diyl(3-methyl-1-oxobut-2-ene-1,2-diyl)]}biscarbamate] was tested, and the EC50 was < 0.1 nM.
